Results taken from article PMC12684391, “Mechanistic insights into the monotherapy and combination potential of FEN1 inhibition in cancer therapy” (Nucleic Acids Research, 2025).
pEC50, pKd: −log10 of the molar value.

Tests used:
FEN1(1-380)-6His = biological target: T1, FEN1(1-380)-6His (Homo sapiens, UniProt P39748); test: Surface plasmon resonance on immobilized FEN1; assay type: binding; conditions: SPR, 25°C, mean of n = 4 surfaces; for pKd: 1:1 Langmuir model; for residence time: read-out: τ (residence time)
T1 construct: FEN1(1-380)-6His was immobilized on a CM5 chip; made in house; host or cells: Escherichia coli
Method: The kinetic parameters of the interaction between FEN1 and small molecules were assessed by surface plasmon resonance (SPR). FEN1(1-380)-6His was immobilized on a CM5 chip (Series S, Cytiva, Uppsala, Sweden) via standard amine coupling procedure at 25°C. Prior to immobilization, the carboxymethylated surface of the CM5 chip was activated with 400 mM 1-ethyl-3-(3-dimethylaminopropyl)-carbodiimide and 100 mM N-hydroxysuccinimide for 7 min. FEN1 was diluted to 10 µg/ml in 10 mM Bis–Tris pH 6.50 and injected in the presence of 2 µM of an active site binder on the CM5 chip for 3 or 4 min resulting in immobilization levels between 1300 and 3100 response units (RU). The remaining activated carboxymethylated groups were blocked with a 7 min injection of 1 M ethanolamine pH 8.50. HBS-N pH 7.40 was used as the background buffer during immobilization.
All compounds were prediluted in DMSO, diluted 1:50 in running buffer (20 mM Tris–HCl pH 7.50, 100 mM KCl, 1 mM DTT, 5 mM MgCl2, 0.05% Tween-20, and 2% DMSO) and injected at 10 different concentrations using two-fold dilution series. A DMSO solvent correction (10 steps, 1.4%–2.8%) was performed to account for variations in bulk signal and to achieve high-quality data. Interaction analysis cycles consisted of a 150 s sample injection (30 μl/min; association phase) followed by 300 s of buffer flow (dissociation phase).
Experiments were performed on a Biacore 8K+ (Cytiva, Uppsala, Sweden) at 25°C and the interactions were evaluated using the Biacore Insight evaluation software (version 5.0). All sensorgrams were processed by first subtracting the signal of the control surface (reference spot) from the binding response, followed by subtraction of the buffer blank injection from the reaction spot (double referencing). All datasets were fitted to a simple 1:1 Langmuir interaction model to determine the kinetic rate constants (using as offset RI = const = 0 and for Rmax either global or local, if the surface generation was not complete between consecutive cycles). Reported kinetic parameters are mean values from four independent FEN1 surfaces (n = 4).

[1] = tested on: FEN1 chromatin enrichment in HeLa cells; test: Chromatin retention assay (immunofluorescence, CSK-extracted cells); assay type: cell-based; conditions: 24 h treatment
Method: HeLa cells were seeded at a density of 4000 cells per well in 100 μl of media in collagen-coated 96-well plates (Revvity, #6055700). Sixteen to twenty-four hours after seeding, compounds were dispensed using the D300e digital dispenser (Tecan) to generate a multipoint dose–response curve, equalized to final DMSO concentration. After 24 h, cells were washed with phosphate buffered saline (PBS) and pre-extracted with 50 μl of ice-cold cytoskeletal (CSK) buffer [10 mM PIPES pH 6.8 (Sigma–Aldrich, P8203-50G), 100 mM NaCl (VWR, 27810.295), 300 mM sucrose (Sigma–Aldrich, S0389-500G), 1.5 mM MgCl2 (VWR, 8760.29), 5 mM EDTA (Sigma–Aldrich, E7889-100ML), 0.4% Triton […] (Sigma–Aldrich, T9285-500ML)], for 4 min on ice. Cells were then washed with PBS and fixed in 4% paraformaldehyde (PFA) (ChemCruz, sc-281692) for 10 min at room temperature.
For immunofluorescence staining, cells were washed with PBS then blocked and permeabilized with PBS containing 0.5% bovine serum albumin (BSA) and 0.5% Triton X-100 (blocking buffer) for 1 h at room temperature. Cells were then stained with the indicated markers (FEN1 or PARP1) by incubation with primary antibodies (Supplementary Table S5) diluted in blocking buffer, at room temperature for 4 h (FEN1) or overnight at 4°C (PARP1). […]

T1 sequence (P39748 whole entry): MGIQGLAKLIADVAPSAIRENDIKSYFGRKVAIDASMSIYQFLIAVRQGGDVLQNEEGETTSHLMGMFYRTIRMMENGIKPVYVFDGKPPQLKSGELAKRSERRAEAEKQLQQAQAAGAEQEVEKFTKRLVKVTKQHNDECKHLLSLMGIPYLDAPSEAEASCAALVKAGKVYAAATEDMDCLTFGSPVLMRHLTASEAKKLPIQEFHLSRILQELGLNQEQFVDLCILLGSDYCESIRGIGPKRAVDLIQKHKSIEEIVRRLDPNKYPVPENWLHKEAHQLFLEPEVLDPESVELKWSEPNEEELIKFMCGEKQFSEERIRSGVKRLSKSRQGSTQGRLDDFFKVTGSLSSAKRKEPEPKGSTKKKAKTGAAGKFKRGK

| pKd (FEN1(1-380)-6His) | koff (FEN1(1-380)-6His) | kon (FEN1(1-380)-6His) | residence time (FEN1(1-380)-6His) | pEC50 ([1]; Homo sapiens, unchallenged HeLa cells) | Structure (SMILES) | Chromatin enrichment (of either FEN1 or PARP1) and DNA damage signalling ([1]; HeLa cells) |
| --- | --- | --- | --- | --- | --- | --- |
| 8.54 | 0.00052 s⁻¹ | 180000 M⁻¹ s⁻¹ | 32 min | 5.92 | C[C@H](Oc1nn2c(c(O)c1=O)C(=O)N1CCOC[C@@H]1C2)c1ccc2ccc(Cl)cc2c1 [MSC778] | – |
| 7.64 | 0.0034 s⁻¹ | 150000 M⁻¹ s⁻¹ | 4.8 min | – | C[C@@H](Oc1nn2c(c(O)c1=O)C(=O)N1CCOC[C@@H]1C2)c1ccc2ccc(Cl)cc2c1 [MSC781] | not enhanced |
